Read-outs that look alike come from different tables or passages of the source.
What was measured:
[1] = target: Photinus pyralis (firefly) luciferase (Photinus pyralis, UniProt P08659); assay: biochemical; format: biochemical
human CYP1A2 = target: T1, human CYP1A2 (Homo sapiens, UniProt P05177)
T1 sequence (P05177 1-516): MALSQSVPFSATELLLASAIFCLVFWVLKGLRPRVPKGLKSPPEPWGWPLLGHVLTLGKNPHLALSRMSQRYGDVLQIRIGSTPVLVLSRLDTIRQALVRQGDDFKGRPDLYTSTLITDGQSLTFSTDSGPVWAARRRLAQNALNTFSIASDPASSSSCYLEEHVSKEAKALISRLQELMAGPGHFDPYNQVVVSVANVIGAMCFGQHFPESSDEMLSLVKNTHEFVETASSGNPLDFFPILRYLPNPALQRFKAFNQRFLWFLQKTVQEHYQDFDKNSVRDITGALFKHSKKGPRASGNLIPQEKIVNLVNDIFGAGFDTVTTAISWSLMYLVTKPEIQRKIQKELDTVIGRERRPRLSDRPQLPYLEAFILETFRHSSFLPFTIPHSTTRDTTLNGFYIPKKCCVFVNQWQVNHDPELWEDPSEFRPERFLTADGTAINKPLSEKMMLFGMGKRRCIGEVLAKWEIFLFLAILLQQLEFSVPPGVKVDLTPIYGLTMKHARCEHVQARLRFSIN

human CYP2C9 = human CYP2C9 (Homo sapiens, UniProt P11712)
human CYP2C19 = human CYP2C19 (Homo sapiens, UniProt P33261)
human CYP2D6 = human CYP2D6 (Homo sapiens, UniProt P10635)
CYP3A4 = CYP3A4 (Homo sapiens, UniProt P08684)
[2] = read-out: Luciferase IC50 (half-maximal inhibitory concentration)

Chain of human CYP2D6 (P10635 whole entry): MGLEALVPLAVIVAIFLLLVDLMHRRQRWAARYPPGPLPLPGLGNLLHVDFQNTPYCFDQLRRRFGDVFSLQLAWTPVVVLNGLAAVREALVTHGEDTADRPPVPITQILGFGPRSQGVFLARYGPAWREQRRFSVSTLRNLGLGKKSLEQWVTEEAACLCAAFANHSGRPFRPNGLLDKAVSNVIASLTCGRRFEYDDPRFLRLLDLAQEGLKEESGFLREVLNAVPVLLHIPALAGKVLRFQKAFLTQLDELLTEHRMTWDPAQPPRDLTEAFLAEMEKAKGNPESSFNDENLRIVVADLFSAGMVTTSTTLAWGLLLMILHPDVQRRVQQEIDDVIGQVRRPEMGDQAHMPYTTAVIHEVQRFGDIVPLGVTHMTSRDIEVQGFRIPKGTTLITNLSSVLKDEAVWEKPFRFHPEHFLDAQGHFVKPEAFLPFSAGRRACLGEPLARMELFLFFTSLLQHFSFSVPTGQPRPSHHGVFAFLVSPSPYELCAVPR
Chain of human CYP2C9 (P11712 whole entry): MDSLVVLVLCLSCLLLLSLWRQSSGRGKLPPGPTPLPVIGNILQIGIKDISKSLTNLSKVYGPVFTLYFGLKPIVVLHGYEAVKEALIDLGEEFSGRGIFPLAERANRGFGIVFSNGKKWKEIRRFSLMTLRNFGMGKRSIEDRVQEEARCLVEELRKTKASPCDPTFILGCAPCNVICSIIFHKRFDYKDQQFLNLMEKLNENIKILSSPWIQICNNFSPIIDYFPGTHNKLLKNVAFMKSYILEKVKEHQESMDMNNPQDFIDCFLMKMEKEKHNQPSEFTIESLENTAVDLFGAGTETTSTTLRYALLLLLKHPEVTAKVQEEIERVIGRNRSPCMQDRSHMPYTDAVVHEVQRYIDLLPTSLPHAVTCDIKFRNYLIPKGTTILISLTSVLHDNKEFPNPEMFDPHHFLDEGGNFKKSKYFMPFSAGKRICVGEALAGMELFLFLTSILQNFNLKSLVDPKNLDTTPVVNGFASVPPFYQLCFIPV
Chain of human CYP2C19 (P33261 whole entry): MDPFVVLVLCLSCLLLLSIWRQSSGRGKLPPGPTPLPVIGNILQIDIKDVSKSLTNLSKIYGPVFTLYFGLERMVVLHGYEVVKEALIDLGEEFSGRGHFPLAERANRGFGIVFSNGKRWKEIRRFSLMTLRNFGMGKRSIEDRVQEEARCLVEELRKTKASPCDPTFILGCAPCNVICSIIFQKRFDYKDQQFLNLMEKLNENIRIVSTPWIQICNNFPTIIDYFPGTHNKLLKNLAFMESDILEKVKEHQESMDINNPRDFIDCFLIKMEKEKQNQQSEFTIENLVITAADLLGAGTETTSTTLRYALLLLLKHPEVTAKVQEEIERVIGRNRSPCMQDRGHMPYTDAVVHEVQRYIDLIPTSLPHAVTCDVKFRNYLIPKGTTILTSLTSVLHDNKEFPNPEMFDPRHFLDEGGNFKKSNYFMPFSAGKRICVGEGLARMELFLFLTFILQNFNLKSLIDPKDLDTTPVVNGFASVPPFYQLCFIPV
Chain of CYP3A4 (P08684 whole entry): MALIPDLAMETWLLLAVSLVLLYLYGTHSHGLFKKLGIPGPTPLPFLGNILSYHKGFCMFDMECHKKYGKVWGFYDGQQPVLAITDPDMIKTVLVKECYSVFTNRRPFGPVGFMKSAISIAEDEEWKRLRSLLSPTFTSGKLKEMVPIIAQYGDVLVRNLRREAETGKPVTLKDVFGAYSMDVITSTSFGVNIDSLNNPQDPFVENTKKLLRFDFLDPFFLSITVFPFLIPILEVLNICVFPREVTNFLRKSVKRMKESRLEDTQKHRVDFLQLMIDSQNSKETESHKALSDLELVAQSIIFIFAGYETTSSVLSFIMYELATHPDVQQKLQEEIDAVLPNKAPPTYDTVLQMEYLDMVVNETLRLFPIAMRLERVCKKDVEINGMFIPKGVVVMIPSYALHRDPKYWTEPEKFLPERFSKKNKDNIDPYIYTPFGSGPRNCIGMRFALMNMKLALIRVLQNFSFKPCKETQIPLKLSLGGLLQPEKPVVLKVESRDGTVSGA
Chain of Photinus pyralis (firefly) luciferase (P08659 whole entry): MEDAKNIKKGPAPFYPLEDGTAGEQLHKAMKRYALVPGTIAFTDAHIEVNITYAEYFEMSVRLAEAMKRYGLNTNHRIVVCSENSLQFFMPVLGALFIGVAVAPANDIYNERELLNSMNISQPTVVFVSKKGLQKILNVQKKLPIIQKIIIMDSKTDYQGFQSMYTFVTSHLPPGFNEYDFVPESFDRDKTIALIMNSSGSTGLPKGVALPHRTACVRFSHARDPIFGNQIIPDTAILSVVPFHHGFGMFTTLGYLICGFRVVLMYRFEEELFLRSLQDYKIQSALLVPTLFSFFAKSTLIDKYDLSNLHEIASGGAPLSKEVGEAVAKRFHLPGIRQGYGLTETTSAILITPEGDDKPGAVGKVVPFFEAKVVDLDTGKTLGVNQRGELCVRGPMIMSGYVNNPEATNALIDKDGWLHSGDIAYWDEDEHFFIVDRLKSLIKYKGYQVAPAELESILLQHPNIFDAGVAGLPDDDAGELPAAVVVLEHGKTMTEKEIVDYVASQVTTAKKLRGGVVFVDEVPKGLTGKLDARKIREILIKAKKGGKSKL

Structure (SMILES) | IC50 (human CYP1A2) | CYP2C9 Efficacy (in parenthesis) (human CYP2C9) | IC50 (human CYP2C9) | CYP2C19 Efficacy (in parenthesis) (human CYP2C19) | IC50 (human CYP2C19) | CYP3A4 Efficacy (in parenthesis) (CYP3A4) | IC50 (CYP3A4) | IC50 (human CYP2D6) | Luciferase IC50 (half-maximal inhibitory concentration) [1] | other results
O=C1CCCc2c1cc1ccc3cccc4ccc2c1c34 [9,10-Dihydrobenzo[a]pyren-7(8H)-one] | 0.28 µM | 5.32 ± 0.68 (-71 ± 3) % | 5.32 µM | 26.27 ± 7.32 (-125 ± 17) % | 26.3 µM | 9.09 ± 1.05 (-72 ± 4) % | 9.09 µM | – | – | Luciferase Efficacy (in parenthesis) [1]: 9.87 ± 1.68 (-53 ± 7) %; IC50 [1, 2]: 9.87 µM; CYP1A2 Efficacy (in parenthesis) (human CYP1A2): 0.28 ± 0.05 (-100 ± 3) %; CYP2D6 IC50 (half-maximal inhibitory concentration) (human CYP2D6): Inactive
N#Cc1cc2ccccc2c2ccccc12 [9-Cyanophenanthrene] | 0.06 µM | – | 39.3 µM | – | 29.3 µM | – | – | – | – | IC50 ([1]; read-out: Luciferase IC50): 62.4 µM; CYP2D6 IC50 (human CYP2D6): Inactive; CYP3A4 IC50 (CYP3A4): Inactive
Oc1cc2ccccc2c2ccccc12 [9-Phenanthrol] | 0.05 µM | 4.41 ± 1.07 (-106 ± 2) % | 4.41 µM | 1.22 ± 0.17 (-132 ± 15) % | 1.22 µM | 6.1 ± 0.4 (-91 ± 4) % | – | 2.53 µM | – | Luciferase Efficacy (in parenthesis) [1]: 71.29 ± 8.19 (-61 ± 21) %; IC50 [1, 2]: 71.3 µM; CYP1A2 Efficacy (in parenthesis) (human CYP1A2): 0.05 ± 0.01 (-99 ± 4) %; CYP2D6 Efficacy (in parenthesis) (human CYP2D6): 2.53 ± 0.29 (-109 ± 3) %
O=C1NCN(c2ccccc2)C12CCN(CCCOc1ccc(F)cc1)CC2 [AMI-193] | – | – | – | – | – | – | – | 0.6 µM | – | Luciferase IC50 [1]: Inactive; CYP1A2 IC50 (human CYP1A2): Inactive; CYP2C9 IC50 (human CYP2C9): Inactive; CYP2C19 AC50 (half-maximal activity concentration) (human CYP2C19): Inconclusive inhibitor; CYP2C19 IC50 (human CYP2C19): Inactive; AC50 (human CYP2D6): 0.6 µM; AC50 (CYP3A4): 4.72 µM; CYP3A4 IC50 (CYP3A4): 4.72 ± 0.31 (133 ± 10) µM
COC(=O)c1cc(Cl)ccc1NS(=O)(=O)C(F)(F)F [Amidoflumet] | 0.91 µM | – | – | – | – | – | – | – | Inactive | CYP2C9 IC50 (half-maximal inhibitory concentration) (human CYP2C9): Inactive; CYP2C19 IC50 (half-maximal inhibitory concentration) (human CYP2C19): Inactive; CYP2D6 IC50 (half-maximal inhibitory concentration) (human CYP2D6): Inactive; CYP3A4 IC50 (half-maximal inhibitory concentration) (CYP3A4): Inactive
COP(=S)(NC(C)C)Oc1ccc(C)cc1[N+](=O)[O-] (centres unmarked) [Amiprofos-methyl] | 12.3 µM | 2.74 ± 0.38 (-109 ± 3) % | 2.74 µM | 0.41 ± 0.19 (-132 ± 27) % | 0.41 µM | 0.55 ± 0.08 (-87 ± 1) % | 0.55 µM | 41.7 µM | Inactive | CYP1A2 Efficacy (in parenthesis) (human CYP1A2): 12.35 ± 5.02 (-104 ± 9) %; CYP2D6 Efficacy (in parenthesis) (human CYP2D6): 41.71 ± 5.32 (-58 ± 14) %
COP(=S)(OC)SCn1nnc2ccccc2c1=O [Azinphos-methyl] | – | – | – | – | – | 11.45 ± 2.62 (-87 ± 5) % | – | – | – | Luciferase Efficacy (in parenthesis) [1]: 47.70 ± 13.48 (-40 ± 2) %; CYP1A2 Efficacy (in parenthesis) (human CYP1A2; human): 28.26 ± 0 (-93 ± 8) %; CYP2C9 Efficacy (in parenthesis) (human CYP2C9; human): 3.88 ± 0.66 (-99 ± 12) %; CYP2C19 Efficacy (in parenthesis) (human CYP2C19; human): 1.01 ± 0.12 (-134 ± 9) %; CYP2D6 Efficacy (in parenthesis) (human CYP2D6; human): 55.48 ± 13.48 (-75 ± 13) %
COc1ccc(OC)c(N=Nc2c(O)ccc3ccccc23)c1 [C.I. Solvent Red 80] | 0.75 µM | – | 6.33 µM | – | 8 µM | – | 2.79 µM | 13.6 µM | – | IC50 [1, 2]: 6.97 µM
Cl.Clc1ccc(Cn2c(CN3CCCC3)nc3ccccc32)cc1 [Clemizole hydrochloride] | 17.6 µM | 16.12 ± 1.09 (-82 ± 4) % | 16.1 µM | 0.68 ± 0.17 (-140 ± 7) % | 0.68 µM | 6.24 ± 1.17 (-72 ± 1) % | 6.24 µM | 1.56 µM | Inactive | CYP1A2 Efficacy (in parenthesis) (human CYP1A2): 17.64 ± 0.46 (-72 ± 13) %; CYP2D6 Efficacy (in parenthesis) (human CYP2D6): 1.56 ± 0.18 (-101 ± 1) %
Cl.Clc1ccc(C(OCCN2CCCCC2)c2ccccc2)cc1 (centres unmarked) [Cloperastine hydrochloride] | 22.5 µM | – | – | – | 18.5 µM | – | 4.43 µM | 0.17 µM | – | Luciferase IC50 [1]: Inactive; CYP2C9 IC50 (human CYP2C9): Inactive
CC(=O)O.CC(C)c1ccc2c(c1)CC[C@H]1[C@](C)(CN)CCC[C@]21C [Dehydroabietylamine acetate] | 38.6 µM | 42.19 ± 26.12 (-70 ± 20) % | 42.2 µM | 14.98 ± 6.91 (-121 ± 11) % | 15 µM | 0.41 ± 0.13 (-82 ± 3) % | 0.41 µM | 1.51 µM | Inactive | CYP1A2 Efficacy (in parenthesis) (human CYP1A2): 38.64 ± 5.32 (-53 ± 5) %; CYP2D6 Efficacy (in parenthesis) (human CYP2D6): 1.51 ± 0.43 (-90 ± 10) %
C[C@@H]1C[C@H]2[C@@H]3CCC4=CC(=O)C=C[C@]4(C)[C@@]3(F)[C@@H](O)C[C@]2(C)[C@@]1(O)C(=O)COC(=O)c1ccncc1 [Dexamethasone isonicotinate] | – | – | 7.32 µM | – | 23.4 µM | – | 0.81 µM | 9.5 µM | Inactive | CYP1A2 IC50 (half-maximal inhibitory concentration) (human CYP1A2): Inactive
COS(=O)(=O)[O-].Cn1c(-c2ccccc2)cc(-c2ccccc2)[n+]1C [Difenzoquat metilsulfate] | – | – | – | – | – | – | – | 0.44 µM | – | Luciferase IC50 [1]: Inactive; CYP1A2 IC50 (human CYP1A2): Inactive; CYP2C9 IC50 (human CYP2C9): Inactive; CYP2C19 IC50 (human CYP2C19): Inactive; CYP3A4 IC50 (CYP3A4): Inactive
C=CC(=O)OCC(CO)(COCC(COC(=O)C=C)(COC(=O)C=C)COC(=O)C=C)COC(=O)C=C [Dipentaerythritol pentaacrylate] | – | 7.3 ± 0.49 (-101 ± 2) % | 7.3 µM | 8.87 ± 1.02 (-135 ± 9) % | 8.87 µM | 0.43 ± 0.03 (-94 ± 4) % | 0.43 µM | 26.7 µM | Inactive | CYP1A2 IC50 (half-maximal inhibitory concentration) (human CYP1A2): Inactive; CYP2D6 Efficacy (in parenthesis) (human CYP2D6): 26.69 ± 11.98 (-72 ± 6) %
CCc1ccc(C(=O)C(C)CN2CCCCC2)cc1.Cl (centres unmarked) [Eperisone hydrochloride] | 29.2 µM | – | – | – | 4.72 µM | – | – | 0.51 µM | Inactive | CYP2C9 IC50 (half-maximal inhibitory concentration) (human CYP2C9): Inactive; CYP3A4 IC50 (half-maximal inhibitory concentration) (CYP3A4): Inactive
CCOC(CN1CCN(CC(C)C(=O)c2ccccc2)CC1)c1ccccc1.Cl.Cl (centres unmarked) [Eprazinone dihydrochloride] | – | – | 11.5 µM | – | – | – | – | 0.2 µM | Inactive | CYP1A2 IC50 (half-maximal inhibitory concentration) (human CYP1A2): Inactive; AC50 (human CYP2C9): 11.5 µM; CYP2C19 IC50 (half-maximal inhibitory concentration) (human CYP2C19): Inactive; AC50 (human CYP2D6): 0.2 µM; AC50 (CYP3A4): 15.2 µM; CYP3A4 IC50 (half-maximal inhibitory concentration) (CYP3A4): 15.16 ± 1.74 (64 ± 2) µM
CCc1cc(Cl)c(OC)c(C(=O)NC[C@@H]2CCCN2CC)c1O.Cl [Eticlopride hydrochloride] | 13.5 µM | – | – | – | – | – | – | – | Inactive | CYP2C9 IC50 (half-maximal inhibitory concentration) (human CYP2C9): Inactive; CYP2C19 IC50 (half-maximal inhibitory concentration) (human CYP2C19): Inactive; CYP2D6 Efficacy (human CYP2D6): 0.67 ± 0.09 (-96 ± 1) %; CYP3A4 IC50 (half-maximal inhibitory concentration) (CYP3A4): Inactive

— article PMC12155096 (International Journal of Molecular Sciences, 2025)
